Source: US20240050727A1, “DEVICES FOR FORMING IN SITU MICRONEEDLES AND METHODS THEREOF” (University of Connecticut, priority 2022, published 2024)
Entries after “also recorded” stand apart in the source; their conditions may differ.

Test system: C. albicans
Test: Antifungal activity in 3D culture model (C. albicans 3D fungal biofilms in CHROMagar)
Type: cell-based
Details: for superficial regrowth of preformed fungal biofilm: t=48 h preformed biofilm, monitored for 48 hr
Procedure: Antifungal activity. The antifungal activity was performed using an in-lab developed 3D culture model. C. Albicans was seeded at a density of 10^7 cells/mL and cultured for 48 h on CHROMagar. The 3D culture gels were treated with PBS and Caspofungin either topically or using the in-situ microneedle device and methodology. Samples were cut for in-depth imaging after 48 h of treatment and fungal inhibition was evaluated. Experiments were performed to assess the feasibility of the disclosed device in the treatment of infection. 10^6 cells/ml of C. albicans were inoculated in liquid CHROMagar™ and allowed to form 3D fungal biofilms. PBS or 32 μg/ml of Caspofungin (CPF) was applied topically and via a microneedling device immediately after the agar solidified (t=0 h) or 48 h after biofilm growth (t=48 h). The growth and distribution of C. albicans was monitored for 48 hr.

## CC[C@H](C)C[C@H](C)CCCCCCCCC(=O)N[C@H]1C[C@@H](O)[C@@H](NCCN)NC(=O)[C@@H]2[C@@H](O)CCN2C(=O)[C@H]([C@H](O)CCN)NC(=O)[C@H]([C@H](O)[C@@H](O)c2ccc(O)cc2)NC(=O)[C@@H]2C[C@@H](O)CN2C(=O)[C@H]([C@@H](C)O)NC1=O [CPF, Caspofungin]
32 μg/ml CPF administered by drop
  3D growth of fungal biofilm (fluorescence images of slices): reduced the 3D growth
32 μg/ml CPF administered by microneedle system
  3D growth of fungal biofilm (fluorescence images of slices): reduced the 3D growth
32 μg/ml CPF applied topically via drop
  superficial regrowth of preformed fungal biofilm: not able to regrow on the surface; also recorded: prevention of superficial growth
32 μg/ml CPF applied via microneedle system
  superficial regrowth of preformed fungal biofilm: not able to regrow on the surface; also recorded: prevention of superficial growth
32 μg/ml CPF, microneedling system vs drop, applied 48 h after biofilm growth
  fungal biofilm 3D growth at t=48 h: effective in reducing the fungal biofilm growth only when administered via the microneedling system; also recorded: reduced only when CPF was administered via microneedles
CPF, microneedle delivery
  overall biofilm thickness and biofilm growth at depth (calcofluor fluorescence signal): reduces the overall biofilm thickness and biofilm growth at depths lower than 1 mm
